Data from US20120269913A1, “CRUDE CAFFEINE COMPLEX, IMPROVED FOOD PRODUCTS USING THE CRUDE CAFFEINE COMPLEX, AND METHODS OF USE THEREOF” (priority 2009, published 2012).
Where two headings read alike, the source gives them in different places.

What was measured:
[1] = ORAC assay adapted for the linoleate microemulsion system, combination with α-tocopherol; conditions: in combination with α-tocopherol; 100% = additive, >100% = synergistic
From the text: Using an ORAC assay adapted for the linoleate microemulsion system (Sim, W. L. S. et al., Journal of Agricultural and Food Chemistry 57: 3409-3414 (2009)), we determined the antioxidant activity of α-tocopherol (a form of vitamin E) combined with crude caffeine, ascorbic acid, and chlorogenic acid. Data were expressed as relative ORAC: a relative ORAC of 100% means that the antioxidant activity of the mixture equaled the sum of each component's antioxidant activity (additive effect), whereas a relative ORAC greater than 100% means that the antioxidant activity of the mixture was greater than the sum of each component's antioxidant activity (synergistic effect).
In a 15-mL test tube, methyl linoleate (1.2 g), Tween-20 (2.9 g), n-butanol (1.5 g), and potassium phosphate buffer (4.4 g) were vortexed until the resulting solution was clear. […] A control well containing 200 μL of microemulsion and 40 μL of phosphate buffer was used to normalize the fluorescence reading. The reaction kinetics were monitored at 37° C. for 2 h, with readings every 2 min, by a Synergy HT microplate fluorescent reader (Biotek Instruments Inc.). The microplate reader was fitted with an excitation filter at 485 nm, an emission filter of 590 nm, and an oxygen sensor biosystem, and the plate was shaken for 20 s at low intensity before each reading to ensure sufficient mixing. […]

[2] = Oxygen radical absorbance capacity, hydrophilic fraction (ORAChydro); conditions: crude caffeine complex of Example 1 vs pure caffeine
Protocol: Oxygen radical absorbance capacity. To determine antioxidant values of the hydrophilic fraction (ORAChydro), 5 g crude caffeine was extracted with 20 mL acetone/water (50:50 v/v) on an orbital shaker at room temperature for 1 h. The mixtures were centrifuged at 1972×g in a Rotanta 460R centrifuge (GMI, Ramsey, Minn.). […] The excitation wavelength was set at 485 (±20) nm and the emission wavelength set at 530 (±25) nm. To determine antioxidant values of the lipophilic fraction (ORAClipo), 5 g crude caffeine was extracted twice with 10 mL hexane/dichloromethane (50:50 v/v).

[3] = test system: human skeletal muscle cells; assay: Glucose uptake (3H-2-deoxyglucose) in human skeletal muscle cells; type: cell-based; conditions: about 0.01 mg/mL, p<0.05
Protocol: (§1) The effect of the crude caffeine extract of Example 1 on glucose uptake in both human adipocytes (fat) and skeletal muscle cells (SMC) was tested (Zen Bio Research, Triangle Park, N.C.).
(§2) Data were analyzed by one-way ANOVA followed by Tukey's post hoc test for multiple comparisons. In FIG. 6, results are expressed as mean±SD. The asterisk * denotes P<0.05 compared with human skeletal muscle cells; the carrot top A denotes P<0.05 compared with untreated human adipocytes.
(§3) Glucose uptake. The in vitro effects of crude caffeine on glucose uptake were assessed with human adipocytes and skeletal muscle cells (Zen-Bio, Research Triangle Park, N.C.). Briefly, primary human subcutaneous adipocytes or primary human myoblasts were differentiated in 96-well microplates. […] All samples, including the positive and negative controls, were tested in triplicate. After a 2-h incubation at 37° C. and 5% CO2, the cells were washed with PBS and lysed. The cell lysate was mixed with scintillation fluid and radioactivity of each well was measured as counts per minute (CPM).

COX-2 enzyme = molecular target: T1, COX-2 enzyme (Homo sapiens, UniProt P35354); assay: COX-2 inhibition (oxygen consumption); type: biochemical
T1 sequence (P35354 18-604): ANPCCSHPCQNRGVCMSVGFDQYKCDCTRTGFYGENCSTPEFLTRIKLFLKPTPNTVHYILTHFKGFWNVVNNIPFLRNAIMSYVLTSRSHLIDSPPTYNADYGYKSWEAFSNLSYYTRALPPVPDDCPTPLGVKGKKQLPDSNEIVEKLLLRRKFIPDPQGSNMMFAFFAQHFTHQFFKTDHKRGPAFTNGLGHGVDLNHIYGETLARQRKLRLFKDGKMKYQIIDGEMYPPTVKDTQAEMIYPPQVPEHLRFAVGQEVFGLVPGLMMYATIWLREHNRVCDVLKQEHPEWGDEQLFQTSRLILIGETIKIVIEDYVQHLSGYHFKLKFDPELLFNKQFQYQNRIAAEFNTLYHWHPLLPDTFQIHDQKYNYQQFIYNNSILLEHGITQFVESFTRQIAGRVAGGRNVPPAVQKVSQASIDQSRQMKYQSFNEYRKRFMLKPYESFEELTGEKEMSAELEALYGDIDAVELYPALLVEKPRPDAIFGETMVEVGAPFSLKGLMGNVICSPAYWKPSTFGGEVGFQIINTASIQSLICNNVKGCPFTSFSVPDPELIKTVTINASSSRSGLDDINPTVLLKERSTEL
Protocol: As discussed above, the ability to inhibit the COX-2 enzyme is understood as providing anti-inflammatory activities. […] IC50 indicates the effective dose needed to achieve about 50 percent inhibition of the COX-2 enzyme.
COX-2 inhibition. Oxygen consumption was measured in the reaction chamber of an Oxytherm (Hansatech Instrumental, Norfolk, England) at 37° C. The reaction mixture consisting of 0.5 mL Tris buffer (0.1 M, pH 8.0), 5 μL heme [100 μM in dimethyl sulfoxide (DMSO)], and 10 μL of COX-2 enzyme was incubated for 1 min. Five microliters of each sample (in DMSO or ethanol) was added and the mixture was incubated for an additional 1 min. The assay was initiated by adding 5 μL arachidonic acid, and the oxygen concentration was monitored. The initial oxygen consumption rate was obtained from the kinetic curve. COX-2 inhibition was expressed as the inhibitor concentration at which the initial oxygen consumption rate decreased by 50% (IC50).

human adipocytes = assay: Glucose uptake (3H-2-deoxyglucose) in human adipocytes; type: cell-based; conditions: about 0.01 mg/mL, p<0.05
Protocol: as §1, §2, §3

Compound	relative ORAC [1] [%]	ORAChydro [2] [μmol TE/g]	increase in glucose uptake as compared to a control [3]	COX-2 inhibitory activity (in words) (COX-2 enzyme)	COX-2 inhibitory activity (in words) (COX-2 enzyme; listed as Pure caffeine)	increase in glucose uptake as compared to a control (human adipocytes)
O=C1O[C@H]([C@@H](O)CO)C(O)=C1O [ascorbic acid]	100	–	–	–	–	–
O=C(/C=C/c1ccc(O)c(O)c1)O[C@@H]1C[C@](O)(C(=O)O)C[C@@H](O)[C@H]1O [chlorogenic acid]	168	–	–	–	–	–
Cn1c(=O)c2c(ncn2C)n(C)c1=O [pure caffeine, 1,3,7-trimethylxanthine]	–	5	no such effect	no such inhibitory activity	did not inhibit COX-2 activity	no such effect
